Legend:
plasma cholesterol level = test: In vivo inhibition of the increase in plasma cholesterol level in cholesterol/cholic acid-fed rats; settings: increase in plasma cholesterol level measured after 3 days, relative to control animals on cholesterol supplemented diet; for inhibition in vivo at 0.01 % strength / inhibition in vivo at 0.03 % strength: Rattus norvegicus, feed or water, 72 h, read-out: In-vivo % Reduction; for inhibition in vivo at 0.01 % strength: dose 0.01 %w/w in diet; for In-vivo % Reduction / inhibition in vivo at 0.03 % strength: dose 0.03 %w/w in diet
[1] = system: acyl coenzyme-A:cholesterol-O-acyl transferase (ACAT;EC 2.3.1.26); test: In vitro ACAT inhibition in rat liver microsomes incubated with radiolabelled oleoyl-CoA; type: biochemical
Method: In assays performed in vitro, microsomes (prepared from the livers of rats fed a diet supplemented with 0.5%w/w cholesterol and 0.25%w/w cholic acid for 7 days) were incubated with radiolabelled oleoyl-CoA in the presence of compounds according to the invention at a concentration (in »g/m1) as shown in Table 1.

[2] = concentration 0.5 »g/m1, microsomes from livers of rats fed 0.5%w/w cholesterol and 0.25%w/w cholic acid for 7 days
[3] = concentration 1.0 »g/m1, microsomes from livers of rats fed 0.5%w/w cholesterol and 0.25%w/w cholic acid for 7 days

Question: How did the inhibition in vivo at 0.01 % strength (plasma cholesterol level) turn out when Cn1cnnc1SCCCSc1nc(-c2ccccc2)c(-c2ccccc2)[nH]1 [Compound I, 2-[3-(4-Methyl-1,2,4-triazol-3-ylthio)propylthio]-4,5-diphenylimidazole] was run?
Answer: 5%

Question: And the “In-vitro % Inhibition” value [1, 2]?
Answer: 84%

Question: Which “In-vivo % Reduction” value (plasma cholesterol level) does the source give for Cl.Cl.Cn1ccnc1SCCCSc1nc(-c2ccccc2)c(-c2ccccc2)[nH]1 [Compound D, 2-[3-(1-Methylimidazol-2-ylthio)propylthio]-4,5-diphenylimidazole dihydrochloride] here?
Answer: 88%

Question: For Cn1ccnc1S(=O)(=O)CCCSc1nc(-c2ccccc2)c(-c2ccccc2)[nH]1 [Compound H, 2-[3-(1-Methylimidazol-2-ylsulphonyl)propylthio]-4,5-diphenylimidazole], which inhibition in vivo at 0.03 % strength (plasma cholesterol level) is on record?
Answer: 108%

Question: And the “In-vitro % Inhibition” value [1, 2]?
Answer: 90%

Question: What does the source list for c1ccc(-c2nc(SCCCSc3ccncc3)[nH]c2-c2ccccc2)cc1 [Compound B, 2-[3-(Pyrid-4-ylthio)propylthio]-4,5-diphenylimidazole]?
Answer: inhibition in vivo at 0.03 % strength (plasma cholesterol level): 91%; In-vitro % Inhibition [1, 2]: 90%

Question: How did the “In-vitro % Inhibition” value [1, 2] turn out when Cn1nnnc1S(=O)(=O)CCCSc1nc(-c2ccccc2)c(-c2ccccc2)[nH]1 [Compound L, 2-[3-(1-Methyltetrazol-5-ylsulphonyl)propylthio]-4,5-diphenylimidazole] was run?
Answer: 19%

Question: With c1ccc(-c2nc(SCCCCCCCCCSc3nc(-c4ccccc4)c(-c4ccccc4)[nH]3)[nH]c2-c2ccccc2)cc1 [Compound S, 1,9-Bis(4,5-diphenylimidazol-2-ylthio)nonane] as the compound, how does the “In-vitro % Inhibition” value [1, 2] read?
Answer: 77%

Question: What does the source list for Cn1ccnc1SCCCSc1nc(-c2ccccc2)c(-c2ccccc2)[nH]1 [C, 2-[3-(1-Methylimidazol-2-ylthio)propylthio]-4,5-diphenylimidazole]?
Answer: In-vivo % Reduction (plasma cholesterol level): 66%; In-vitro % Inhibition [1, 2]: 93%

Question: With c1ccc(-c2nc(SCCCSc3ncccn3)[nH]c2-c2ccccc2)cc1 [A, 2-[3-(Pyrimidin-2-ylthio)propylthio]-4,5-diphenylimidazole] as the compound, how does the inhibition in vivo at 0.03 % strength (plasma cholesterol level) read?
Answer: 7%

Question: What about the “In-vitro % Inhibition” value [1, 2] of the same compound?
Answer: 88%

Question: How did the inhibition in vivo at 0.03 % strength (plasma cholesterol level) turn out when Cn1ccnc1SCCCCSc1nc(-c2ccccc2)c(-c2ccccc2)[nH]1 [N, 2-[4-(1-Methylimidazol-2-ylthio)butylthio]-4,5-diphenylimidazole] was run?
Answer: 98%

Question: What about the “In-vitro % Inhibition” value [1, 2] of the same compound?
Answer: 94%

Question: Cn1nnnc1SCCCSc1nc(-c2ccccc2)c(-c2ccccc2)[nH]1 [J, 2-[3-(1-Methyltetrazol-5-ylthio)propylthio]-4,5-diphenylimidazole] was tested. Which inhibition in vivo at 0.01 % strength (plasma cholesterol level) did it give?
Answer: 17%

Question: And the “In-vitro % Inhibition” value [1, 2]?
Answer: 84%

Question: For Cc1cc(C)nc(SCCCSc2nc(-c3ccccc3)c(-c3ccccc3)[nH]2)n1 [Compound G, 2-[3-(4,6-Dimethylpyrimidin-2-ylthio)propylthio]-4,5-diphenylimidazole], which “In-vitro % Inhibition” value [1, 2] is on record?
Answer: 80%

Question: c1ccc(-c2nc(SCCCCSc3nc(-c4ccccc4)c(-c4ccccc4)[nH]3)[nH]c2-c2ccccc2)cc1 [P, 1,4-Bis(4,5-diphenylimidazol-2-ylthio)butane] was tested. Which “In-vitro % Inhibition” value [1, 2] did it give?
Answer: 97%

Question: How did the “In-vitro % Inhibition” value [1, 2] turn out when Cn1ccnc1SCCCCCCSc1nc(-c2ccccc2)c(-c2ccccc2)[nH]1 [Compound R, 2-[6-(1-Methylimidazol-2-ylthio)hexylthio]-4,5-diphenylimidazole] was run?
Answer: 95%

Question: With c1ccc(-c2nc(SCCCSc3nc(-c4ccccc4)c(-c4ccccc4)[nH]3)[nH]c2-c2ccccc2)cc1 [F, 1,3-Bis(4,5-diphenylimidazol-2-ylthio)propane] as the compound, how does the inhibition in vivo at 0.03 % strength (plasma cholesterol level) read?
Answer: 72%

Question: What about the “In-vitro % Inhibition” value [1, 3] of the same compound?
Answer: 96%

Question: With c1ccc(-c2nc(SCCSc3nc(-c4ccccc4)c(-c4ccccc4)[nH]3)[nH]c2-c2ccccc2)cc1 [E, 1,2-Bis(4,5-diphenylimidazol-2-ylthio)ethane] as the compound, how does the “In-vitro % Inhibition” value [1, 3] read?
Answer: 88%

Question: For Cn1ccnc1S(=O)(=O)CCCCS(=O)(=O)c1nc(-c2ccccc2)c(-c2ccccc2)[nH]1 [Compound O, 2-[4-(1-Methylimidazol-2-ylsulphonyl)butylsulphonyl]-4,5-diphenylimidazole], which “In-vitro % Inhibition” value [1, 2] is on record?
Answer: 23%

Question: Cn1ccnc1SCCCCCCCCCSc1nc(-c2ccccc2)c(-c2ccccc2)[nH]1 [Compound T, 2-[9-(1-Methylimidazol-2-ylthio)nonylthio]-4,5-diphenylimidazole] was tested. Which “In-vitro % Inhibition” value [1, 2] did it give?
Answer: 91%

Question: For C(=C\CSc1nc(-c2ccccc2)c(-c2ccccc2)[nH]1)/CSc1nc(-c2ccccc2)c(-c2ccccc2)[nH]1 [Q, E-1,4-Bis(4,5-diphenylimidazol-2-ylthio)but-2-ene], which inhibition in vivo at 0.01 % strength (plasma cholesterol level) is on record?
Answer: 74%

Question: What about the “In-vitro % Inhibition” value [1, 2] of the same compound?
Answer: 98%

Question: Which inhibition in vivo at 0.01 % strength (plasma cholesterol level) does the source give for Cl.Cl.c1ccc(-c2nc(SCCCSc3nc(-c4ccccn4)c(-c4ccccn4)[nH]3)[nH]c2-c2ccccc2)cc1 [Compound K, 1-(4,5-Diphenylimidazol-2-ylthio)-3-[(4,5-dipyrid-2-yl)imidazol-2-ylthio]propane dihydrochloride] here?
Answer: 4%

Question: What about the “In-vitro % Inhibition” value [1, 2] of the same compound?
Answer: 77%

Question: With c1ccc(-c2nc(SCCCSc3ncc[nH]3)[nH]c2-c2ccccc2)cc1 [M, 2-[3-(Imidazol-2-ylthio)propylthio]-4,5-diphenylimidazole] as the compound, how does the inhibition in vivo at 0.01 % strength (plasma cholesterol level) read?
Answer: 107%

Question: What about the “In-vitro % Inhibition” value [1, 2] of the same compound?
Answer: 95%

Source: EP0505468B1, “IMIDAZOLE DERIVATIVES AND THEIR USE AS ACYL COENZYME-A INHIBITORS” (RHONE-POULENC SANTE, priority 1989, dated 1991)
